Legend:
[1] = test system: capsaicin-sensitive sensory nerve; experiment: Plasma protein extravasation induced by capsaicin in the mouse bladder (Evans blue); format: in vivo; conditions: for reduction of capsaicin-induced increase in Evans blue dye content in the bladder: female Balb/c mice, 100 μL, about one hour before capsaicin 300 μg/kg i.v.; for intravesical concentration that inhibited extravascular leakage of plasma proteins (depressant action on capsaicin-sensitive sensory nerve): mouse bladder, infused intravesically
Description: In the experiment, four or five female Balb/c mice (Japan SLC, Inc.) per group were used. A catheter was inserted into the bladder of a mouse anesthetized with urethane (intraperitoneally administered with 0.15 ml of a 20% solution per mouse) via the urethra, and after emptying the bladder, a physiological saline or drug solution was injected. This catheter was prepared by blunting the tip of a 24-guage hypodermic needle and making a side hole at 2 mm from the newly prepared tip. About one hour after the instillation into the bladder, extravascular leakage of plasma proteins due to inflammatory reaction caused by stimulation of the capsaicin-sensitive sensory nerve according to the method of Maggi, et al. (Nauny-Schmiedeberg's Arch. Pharmacol., 336: pp.546-555(1987)). That is Evans blue (30 mg/kg) a dye bound by plasma proteins and capsaicin (300 μg/kg) were administered to the mouse from the tail vein, and precisely five minutes after the administration, the mouse was killed by cervical dislocation, then the bladder was removed. After removing urine and blood remaining in the tissue, the dye in the organs was quantitatively determined. Evans blue dye was extracted from the bladder by placing the tissue in 150 μL of formamide overnight, and was quantitatively determined by measuring light absorbance at a wavelength of 620 nm of 100 μL supernatant in a 96-well microplate. In addition, the content of Evans blue dye in one milligram of wet tissue was calculated. Moreover, the mouse intravesically instilled with physiological saline and intravenously administered with a capsaicin-free Evans blue solution served as a normal control. […] Capsaicin and formamide were purchased from Wako Pure Chemical Industries, Ltd., and Evans blue was purchased from Aldrich. […] Results were shown as [(mean values)±(standard errors of the mean)]. The Student's t-test was used to determine the significance of difference between the group of mice receiving […] saline and stimulated with capsaicin e and the group of normal control mice.

[2] = test system: rhythmic bladder contraction; conditions: as disclosed in International Patent Publication No. 96/20194; cited from earlier work

Structure (SMILES) | reduction of capsaicin-induced increase in Evans blue dye content in the bladder ([1]; injected intravesically at 1 μM) [%] | reduction of capsaicin-induced increase in Evans blue dye content in the bladder ([1]; injected intravesically at 10 μM) [%] | reduction of capsaicin-induced increase in Evans blue dye content in the bladder ([1]; injected intravesically at 100 μM) [%] | intravesical concentration that inhibited extravascular leakage of plasma proteins (depressant action on capsaicin-sensitive sensory nerve) [1] [µM] | effect on rat rhythmic bladder contraction [2]
O=C(O[C@H]1CN2CCC1CC2)N1CCc2ccccc2[C@@H]1c1ccccc1 [Compound 1, (+)-(1S,3′R)-quinuclidin-3′-yl 1-phenyl-1,2,3,4-tetrahydroisoquinoline-2-carboxylate] | 52 | 76 | 80 | ≥ 1 | 
O=C(OC1CN2CCC1CC2)N1CCc2ccccc2C1c1ccccc1 (stereo not drawn) [Compound A, quinuclidin-3′-yl 1-phenyl-1,2,3,4-tetrahydroisoquinoline-2-carboxylate] |  |  |  | ≥ 1 | inhibitory effects on rat rhythmic bladder contraction

— patent US7335668B2, “Pharmaceutical composition for therapy of interstitial cystitis” (priority 2001, dated 2008)
